# From patent US20220146526A1, “METHOD FOR EVALUATING SAMPLE, ANALYSIS METHOD, METHOD FOR DETECTING DEGRADED SAMPLE, MARKER FOR DETECTING DEGRADED BLOOD PLASMA SAMPLE, AND MARKER FOR DETECTING DEGRADED SERUM SAMPLE” (SHIMADZU CORPORATION, priority 2019, published 2022)
# Experiments:
# Assay type in all cases: physicochemical, human
# [1] = GC/MS of serum sample: number of times of freezing and thawing (Table I); parameters: key to Rate of increase or decrease / Rate of increase or decrease (first value, increase): detection intensity relative to 2 freeze-thaw cycles = 1
# Method in brief: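 Detection intensities are ratios to the value after two freeze–thaw cycles, which is set as 1, compared against 4, 6 and 10 cycles. Analysis used methoxymation and trimethylsilylation derivatization, then GC/MS with EI ionization and multiple reaction monitoring on a BPX5 column. Serum came from blood held at room temperature and spun at 3500 rpm for 5 min.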
# [2] = GC/MS of blood plasma sample: number of times of freezing and thawing (Table C); conditions: for Increase or decrease: detection intensity; for Rate of increase or decrease (second value, decrease) / Rate of increase or decrease (first value, increase): different from individual to individual, relative to 1 at 2 times; for Rate of increase or decrease (second value, decrease): individuals with decrease; for Rate of increase or decrease (first value, increase): individuals with increase
# Protocol: (§1) At room temperature, 5 mL of blood from a healthy subject was taken into a blood-collecting vessel containing EDTA, and the blood-collecting vessel was inverted for mixing, then cooled, and allowed to stand at 4° C. Here, in order to investigate how the detection intensity of molecules contained in the sample was affected in a case where the time to cooling was set to 5 minutes or more as compared to that in a case where the time to cooling was set to 1 minute or less, preparations were performed under both the former condition and the latter condition. After standing, the blood sample was subjected to centrifugation under a condition of 4° C., 3000 rpm, and 15 minutes. […] After centrifugation, the blood-collecting vessel was left to stand at room temperature for 30 minutes, and the blood plasma was isolated during this 30 minutes. The obtained blood plasma sample was frozen and stored. Here, in order to investigate how the detection intensity of molecules contained in the sample was affected in cases where freezing and thawing was performed 4 times, 6 times, and 10 times after freezing as compared to that in a case where freezing and thawing was performed 2 times after freezing, freezing and thawing was performed under the respective conditions of 2, 4, 6, and 10 times.
# (§2) Frozen blood plasma samples and serum samples were subjected to GC/MS or LC/MS. In GC/MS, the blood plasma samples and serum samples were subjected to methoxymation and trimethylsilylation and then introduced to GC-MS.
# (§3) GC/MS was conducted using GCMS·TQ8040 (Shimadzu Corporation) that was a GC·MS equipped with AOC·20i (Shimadzu Corporation) as an autosampler.
# (§4) Column: BPX5 (inner diameter of 0.25 mm, length of 30 m, and film thickness of 0.25 μm) (SGE)
# (§5) Column temperature: maintained at 60° C. for 2 minutes, then raised at 15° C./min, and maintained at 330° C. for 3 minutes.
# (§6) Inlet temperature: 250° C.
# (§7) Carrier gas control mode: constant linear velocity of 39.0 cm/sec
# (§8) Sample introduction method: split (split ratio of 30:1) Injection volume: 1 μL
# (§9) Ionization method: electron ionization
# (§10) Ionization current: 60 μA
# (§11) Interface temperature: 280° C.
# (§12) Ion source temperature: 200° C.
# (§13) Mode: multiple reaction monitoring (MRM)
# The rate of increase or decrease in Table C is the value of detection intensity relative to 1 that is the detection intensity in a case where the number of times of freezing and thawing is set to 2 times.
# [3] = GC/MS of blood plasma sample: time from blood collection to cooling of blood (Table B); parameters: key to Rate of increase or decrease / Rate of increase or decrease (first value, increase): detection intensity relative to 1 at cooling time ≤1 min; conditions: for Increase or decrease: detection intensity, blood collection to cooling 5 minutes or more vs 1 minute or less; for Rate of increase or decrease (second value, decrease) / Rate of increase or decrease (first value, increase): different from individual to individual, relative to 1 at 1 minute or less, collection to cooling 5 minutes; for Rate of increase or decrease (second value, decrease): individuals with decrease; for Rate of increase or decrease (first value, increase): individuals with increase; for Rate of increase or decrease: detection intensity relative to 1 at 1 minute or less, blood collection to cooling 5 minutes
# Protocol: as §1, §2, §3, §4, §5, §6, §7, §8, §9, §10, §11, §12, §13
# Table B presents compounds of which the detection intensity increased or decreased by 30% or more in a case where the time from blood collection to cooling of blood, when a blood plasma sample was analyzed by GC/MS, was set to 5 minutes or more as compared to that in a case where the time was set to 1 minute or less. The rate of increase or decrease in Table B is the value of detection intensity relative to 1 that is the detection intensity in a case where the time from blood collection to cooling is set to 1 minute or less.
# [4] = GC/MS of blood plasma sample: time from blood collection to centrifugation (Table A); conditions: blood collection to centrifugation; for Rate of increase or decrease: detection intensity relative to 1 at 15 minutes; for Increase or decrease: detection intensity
# Protocol: as §1, §2, §3, §4, §5, §6, §7, §8, §9, §10, §11, §12, §13
# The rate of increase or decrease in Table A is the value of detection intensity relative to 1 that is the detection intensity in a case where the time from blood collection to centrifugation is set to 15 minutes.
# [5] = LC/MS of blood plasma sample: time from blood collection to centrifugation (Table D); conditions: blood collection to centrifugation
# Method in brief: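 Detection intensities are expressed relative to samples centrifuged 15 min after collection (=1), measured by electrospray LC/MS in MRM mode (Discovery HS F5-3, 40 °C, formic acid water/acetonitrile gradient at 0.25 mL/min). EDTA blood from a healthy donor was held at 4 °C, centrifuged at 4 °C, 3000 rpm, 15 min, and plasma frozen.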
# [6] = GC/MS of serum sample: time from blood collection to centrifugation (Table G); conditions: blood collection to centrifugation
# Method in brief: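 Values express detection intensity as a ratio to the sample centrifuged 15 minutes after blood collection (taken as 1). Serum was derivatized by methoxymation and trimethylsilylation, then analysed by electron-ionization GC/MS using multiple reaction monitoring on a BPX5 column ramped from 60 to 330° C.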
# [7] = LC/MS of serum sample: number of times of freezing and thawing (Table M); parameters: key to Rate of increase or decrease: detection intensity relative to 1 at 2 freeze-thaw cycles
# Method in brief: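 Values are detection intensities relative to serum thawed twice, versus 4, 6 or 10 freeze-thaw cycles. Serum came from blood spun at room temperature, 3500 rpm for 5 minutes. Analysis: electrospray LC/MS in MRM mode, Discovery HS F5-3 column, 40° C, 0.1% formic acid in water and acetonitrile.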
# [8] = freezing and thawing 4 times vs 2 times
SMILES,Increase or decrease [3],"Rate of increase or decrease (second value, decrease) [3]","Rate of increase or decrease (first value, increase) [3]",Rate of increase or decrease ([4]; after 4 hours),Increase or decrease ([4]; after 4 hours vs 15 minutes),"Increase or decrease [2, 8]","Rate of increase or decrease (second value, decrease) ([2]; freezing and thawing 4 times)","Rate of increase or decrease (first value, increase) ([2]; freezing and thawing 4 times)",Rate of increase or decrease ([4]; after 12 hours),Increase or decrease ([4]; after 12 hours vs 15 minutes),Rate of increase or decrease [3],further results
O=C(O)C(O)Cc1ccccc1 (centres unmarked) [3-Phenyllactic acid],Different from individual,0.60,1.47,,,,,,,,,"Rate of increase or decrease ([1]; detection intensity relative to 1 at 2 times, serum, GC/MS, freezing and thawing 4 times): 0.68; Increase or decrease ([1]; detection intensity, serum, GC/MS, freezing and thawing 4 times vs 2 times): Decrease; Rate of increase or decrease ([2]; detection intensity relative to 1 at 2 times, freezing and thawing 10 times): 0.62; Increase or decrease ([2]; freezing and thawing 10 times vs 2 times): Decrease"
O=C(O)c1cccnc1C(=O)O [Quinolinic acid],Different from individual,0.41,1.67,2.24,Increase,Different from individual,0.68,1.70,,,,
Oc1ccc(O)cc1 [Hydroquinone],Decrease,,,17.48,Increase,Different from individual,0.69,3.54,,,0.66,

# Continued, in another order:
Increase or decrease [3],"Rate of increase or decrease (second value, decrease) [3]","Rate of increase or decrease (first value, increase) [3]",Rate of increase or decrease ([4]; after 4 hours),Increase or decrease ([4]; after 4 hours vs 15 minutes),"Increase or decrease [2, 8]","Rate of increase or decrease (second value, decrease) ([2]; freezing and thawing 4 times)","Rate of increase or decrease (first value, increase) ([2]; freezing and thawing 4 times)",Rate of increase or decrease ([4]; after 12 hours),Increase or decrease ([4]; after 12 hours vs 15 minutes),Rate of increase or decrease [3],SMILES,further results
Decrease,,,,,,,,1.89,Increase,0.49,O=c1[nH]c(=O)c2[nH]c(=O)[nH]c2[nH]1 [Uric acid],"Rate of increase or decrease ([5]; detection intensity relative to 1 at 15 minutes, after 12 hours): 1.52; Increase or decrease ([5]; detection intensity, after 12 hours vs 15 minutes): Increase; Rate of increase or decrease ([1]; 10 times of freezing and thawing, relative to 1 at 2 times, different from individual to individual, first value (increase)): 1.33; Rate of increase or decrease ([1]; 10 times of freezing and thawing, relative to 1 at 2 times, different from individual to individual, second value (decrease)): 0.66; Number of times when compound is affected ([1]; serum sample, GC/MS, detection intensity changed by 30% or more vs 2 times of freezing and thawing): 10 times; Increase or decrease ([1]; serum sample, GC/MS, detection intensity vs 2 times of freezing and thawing): Different from individual; Rate of increase or decrease ([6]; detection intensity relative to 1 at 15 minutes, after 8 hours): 0.69; Increase or decrease ([6]; detection intensity, after 8 hours vs 15 minutes): Decrease; Rate of increase or decrease ([7]; 6 times of freezing and thawing, detection intensity relative to 1 at 2 times): 0.70; Number of times when compound is affected ([7]; serum sample, LC/MS, detection intensity changed by 30% or more vs 2 times of freezing and thawing): 6 times; Increase or decrease ([7]; serum sample, LC/MS, detection intensity vs 2 times of freezing and thawing): Decrease"
Decrease,,,,,,,,1.43,Increase,0.68,O=c1ccn([C@H]2C[C@H](O)[C@@H](CO)O2)c(=O)[nH]1 [2′-Deoxyuridine],"Increase or decrease ([2]; freezing and thawing 6 times vs 2 times): Different from individual; Rate of increase or decrease (second value, decrease) ([2]; freezing and thawing 6 times): 0.67; Rate of increase or decrease (first value, increase) ([2]; freezing and thawing 6 times): 1.43"
